From US20020035061A1, “COMPOSITIONS AND METHODS FOR TREATING INFECTIONS USING CATIONIC PEPTIDES ALONE OR IN COMBINATION WITH ANTIBIOTICS” (priority 1996, published 2002)
Like-named read-outs stand apart in the source and are kept apart here.

How the values were obtained:
Assay type in all cases: cell-based
S. aureus = details: for Peptide MIC values: agarose dilution
E. cloacae = E. cloacae strain ECL007
S. marcescens = details: for Peptide MIC values: agarose dilution
E. faecium = tested on: E. faecium
P. vulgaris = experiment: Agarose dilution assay (MIC)
S. maltophilia = S. maltophilia strain SMA001
bacterial isolates = experiment: microbe, parasite or virus in culture; details: E. coli SBECO1
S. pneumoniae = experiment: Agarose dilution assay (MIC); details: for Peptide MIC values: agarose dilution
P. aeruginosa = details: for Peptide MIC values: agarose dilution
E. faecalis = E. faecalis strain EFS002
[1] = tested on: P388, lymphocytic leukemia; experiment: Cell death by Cytotox (Promega) lactate dehydrogenase release; details: LDH release
Method: (§1) In addition, APO-peptides and parent peptides are tested against a panel of cancer cell lines. Cell death is measured using the Cytotox (Promega) assay kit which measures the release of lactate dehydrogenase.
(§2) PBL, peripheral blood lymphocytes; HUVEC, human umbilical vein endothelial cells; H460,non-small lung tumor; K562, chronic myelogenous leukemia; DoHH-2, B-cell cell lymphoma; P388, lymphocytic leukemia; P388ADR, lymphocytic leukemia, multidrug resistant; MCF-7, breast carcinoma; MCF-7ADR, breast carcinoma, multidrug resistant.

[2] = tested on: P388ADR, lymphocytic leukemia, multidrug resistant; experiment: as above; details: LDH release
Method: as §1, §2

[3] = tested on: K562, chronic myelogenous leukemia; experiment: as above; details: LDH release
Method: as §1, §2

[4] = tested on: H460, non-small lung tumor; experiment: as above; details: LDH release
Method: as §1, §2

[5] = tested on: HUVEC, human umbilical vein endothelial cells; experiment: as above; details: LDH release
Method: as §1, §2

[6] = tested on: DoHH-2, B-cell cell lymphoma; experiment: as above; details: LDH release
Method: as §1, §2

[7] = tested on: PBL, peripheral blood lymphocytes; experiment: as above; details: LDH release
Method: as §1, §2

S. epidermidis = S. epidermidis strain SE002
K. pneumoniae = K. pneumoniae strain KP001
E. coli = details: for Peptide MIC values: agarose dilution
H. influenzae = experiment: Agarose dilution assay (MIC); details: H. influenzae strain HIN002
A. calcoaceticus = A. calcoaceticus strain AC001

For ILKKYPYYPYRRK [MBI 11A3CN], the MIC (S. aureus; S. aureus strain SA004) was 32 µg/mL, the “Peptide MIC values” (S. aureus; S. aureus ATCC 29213) was 16 µg/mL and the “Peptide MIC values” (S. aureus; S. aureus MRSA9) was 128 µg/mL. The “Peptide MIC values” (S. aureus; S. aureus MRSA13) was over 128 µg/mL, the “Peptide MIC values” (S. aureus; S. aureus MRSA17) was over 128 µg/mL and the “Peptide MIC values” (S. aureus; S. aureus SA206) was over 128 µg/mL. For the same sequence, the MIC (E. cloacae) was over 128 µg/mL, the MIC (S. marcescens; S. marcescens strain SBSM2) was over 128 µg/mL and the “Peptide MIC values” (S. marcescens; S. marcescens SM76) was over 128 µg/mL. For the same sequence, the “Peptide MIC values” (S. marcescens; S. marcescens SM82) was over 128 µg/mL, the MIC (E. faecium; E. faecium strain EFM003) was 64 µg/mL and the “Peptide MIC values” (E. faecium; agarose dilution) was over 128 µg/mL. The MIC (P. vulgaris; P. vulgaris strain SBPV1) was over 128 µg/mL, the “Peptide MIC values” (P. vulgaris; agarose dilution, P. vulgaris ATCC 13315) was over 128 µg/mL and the MIC (S. maltophilia) was over 128 µg/mL. For the same sequence, the “Mupirocin MIC + Peptide” value (bacterial isolates) was 30 µg/mL, the “Peptide MIC + Mupirocin” value (bacterial isolates) was 8 µg/mL and the “Peptide MIC Alone” value (bacterial isolates; Mupirocin section) was 64 µg/mL. The FIC (bacterial isolates; peptide + Mupirocin) was 0.43, the MIC (S. pneumoniae; S. pneumoniae strain SBSPN3) was over 128 µg/mL and the “Peptide MIC values” (S. pneumoniae; S. pneumoniae 406LE8) was over 128 µg/mL. For the same sequence, the “Peptide MIC values” (S. pneumoniae; S. pneumoniae 60120) was over 128 µg/mL, the “Peptide MIC values” (S. pneumoniae; S. pneumoniae ATCC 49619) was over 128 µg/mL and the MIC (P. aeruginosa; P. aeruginosa strain PA002) was over 128 µg/mL. The “Peptide MIC values” (P. aeruginosa; P. aeruginosa ATCC 27853) was over 128 µg/mL, the “Peptide MIC values” (P. aeruginosa; P. aeruginosa NCTC 10662) was over 128 µg/mL and the MIC (E. faecalis) was over 128 µg/mL. The “LC50 ± S.E., P388” value [1] was over 300 µg/mL, the “LC50 ± S.E., P388 ADR” value [2] was over 300 µg/mL and the “LC50 ± S.E., K562” value [3] was over 500 µg/mL. The “LC50 ± S.E., H460” value [4] was over 500 µg/mL, the “LC50 ± S.E., HUVEC” value [5] was over 500 µg/mL and the “LC50 ± S.E., DoHH-2” value [6] was over 500 µg/mL. For the same sequence, the “LC50 ± S.E., PBL” value [7] was over 500 µg/mL, the MIC (S. epidermidis) was 128 µg/mL and the MIC (K. pneumoniae) was over 128 µg/mL. The MIC (E. coli; E. coli strain ECO002) was over 128 µg/mL, the “Peptide MIC values” (E. coli; E. coli ATCC 25922) was over 128 µg/mL and the “Peptide MIC values” (E. coli; E. coli ESS) was over 128 µg/mL. For the same sequence, the “Peptide MIC values” (E. coli; E. coli NCTC 10418) was 64 µg/mL, the MIC (H. influenzae) was over 128 µg/mL and the MIC (A. calcoaceticus) was over 128 µg/mL.
